The source of these data is patent US9012651B2, “TRPV3 modulators” (AbbVie Inc., priority 2011, dated 2015).

The structures appear in SMILES notation.

Sequence of human TRPV3 receptors (Q8NET8 whole entry): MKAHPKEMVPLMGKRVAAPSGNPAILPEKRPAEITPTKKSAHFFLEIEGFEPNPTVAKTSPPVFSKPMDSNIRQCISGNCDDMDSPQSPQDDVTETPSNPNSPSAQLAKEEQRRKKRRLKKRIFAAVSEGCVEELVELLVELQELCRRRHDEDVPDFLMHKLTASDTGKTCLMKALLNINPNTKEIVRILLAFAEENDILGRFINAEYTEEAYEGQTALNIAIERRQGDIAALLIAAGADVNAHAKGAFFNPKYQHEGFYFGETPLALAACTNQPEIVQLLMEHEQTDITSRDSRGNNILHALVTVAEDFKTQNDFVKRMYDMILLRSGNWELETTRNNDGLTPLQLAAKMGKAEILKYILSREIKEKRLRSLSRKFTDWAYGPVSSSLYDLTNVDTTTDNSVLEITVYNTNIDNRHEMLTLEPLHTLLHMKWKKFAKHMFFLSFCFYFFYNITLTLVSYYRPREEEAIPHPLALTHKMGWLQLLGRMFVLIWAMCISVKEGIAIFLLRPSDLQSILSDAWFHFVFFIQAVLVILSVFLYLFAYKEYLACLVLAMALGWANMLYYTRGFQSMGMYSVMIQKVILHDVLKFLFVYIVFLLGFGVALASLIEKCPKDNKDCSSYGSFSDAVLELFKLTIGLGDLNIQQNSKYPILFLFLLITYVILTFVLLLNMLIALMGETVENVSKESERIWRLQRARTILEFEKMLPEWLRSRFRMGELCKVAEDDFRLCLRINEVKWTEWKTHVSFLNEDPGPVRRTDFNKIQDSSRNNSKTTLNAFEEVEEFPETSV

This assay concerns the target human TRPV3 receptors (Homo sapiens (Human), UniProt Q8NET8). Description: Calcium flux assay (FLIPR TETRA), inhibition of the 2-APB response. The class given is cell-based. The conditions noted are these: recombinant HEK293 cells stably expressing TRPV3, Calcium-4 dye, 2-APB at its EC80. Here is the method: (i) In Vitro Methods-Calcium Flux Assays:
Experiments were conducted using the FLIPR^TETRA®. On the day prior to the experiment, recombinant HEK293 cells that stably express human and mouse TRPV3 were removed from tissue culture flasks and plated in growth medium at 20,000 cells/well into black-walled clear-bottom 384-well Biocoat™ poly-D-lysine assay plates (BD Biosciences, Bedford, Mass.) using a Multidrop® dispenser (ThermoScientific, Waltham, Mass.). […] Cells were incubated for 90-120 minutes in the dark. Compounds were dissolved in DMSO to prepare a 10 mM stock solution. The intensity of the fluorescence was captured and digitally transferred to an interfaced PC. The peak increase in fluorescence over baseline (relative fluorescence units) was calculated and expressed as the percentage of the maximal 2-APB (2-aminoethoxyldiphenyl borate) response (in the absence of compound).
Take `CC(C)[C@H](CO)NCc1nc(-c2cccc(F)c2)ccc1F` [Example 14, (2R)-2-({[3-fluoro-6-(3-fluorophenyl)pyridin-2-yl]methyl}amino)-3-methylbutan-1-ol]: the IC50 came out at 0.81 µM.

For `CC(C)[C@H](CO)NCc1nc(N2CCC(F)(F)CC2)ncc1F` [Example 231, (2R)-2-({[2-(4,4-difluoropiperidin-1-yl)-5-fluoropyrimidin-4-yl]methyl}amino)-3-methylbutan-1-ol], the IC50 was 1.53 µM.

For the molecule `CC(C)[C@H](CO)NCc1nc(-c2ccc(F)c(C(F)(F)F)c2)ccc1F` [Example 281, (2R)-2-[({3-fluoro-6-[4-fluoro-3-(trifluoromethyl)phenyl]pyridin-2-yl}methyl)amino]-3-methylbutan-1-ol], the IC50 amounted to 0.39 µM. Regarding `CC(C)(O)[C@H](CO)NCc1ccnc(-c2ccc(C(F)(F)F)nc2)n1` [Example 189, (2S)-3-methyl-2-[({2-[6-(trifluoromethyl)pyridin-3-yl]pyrimidin-4-yl}methyl)amino]butane-1,3-diol], the IC50 is above 20 µM. In the case of `CC(C)[C@H](CO)NCc1nc(-c2ccnc(N3CCOCC3)c2)ccc1F` [Example 55, (2R)-2-({[5-fluoro-2′-(morpholin-4-yl)-2,4′-bipyridin-6-yl]methyl}amino)-3-methylbutan-1-ol], the IC50 amounted to 2.16 µM.

For `CC(C)[C@H](CO)NCc1nc(-c2ccc3occc3c2)ccc1F` [Example 256, (2R)-2-({[6-(1-benzofuran-5-yl)-3-fluoropyridin-2-yl]methyl}amino)-3-methylbutan-1-ol], the IC50 amounted to 0.42 µM. Consider `CC(C)[C@H](CO)NCc1nc(N2CCc3cc(Cl)ccc3C2)ccc1F` [Example 101, (2R)-2-({[6-(6-chloro-3,4-dihydroisoquinolin-2(1H)-yl)-3-fluoropyridin-2-yl]methyl}amino)-3-methylbutan-1-ol], for which the IC50 came out at 0.5 µM. As for `CC(C)[C@H](CO)NCc1nc(C#Cc2ccc(C(C)(C)C)cc2)ccc1F` [Example 241, (2R)-2-[({6-[(4-tert-butylphenyl)ethynyl]-3-fluoropyridin-2-yl}methyl)amino]-3-methylbutan-1-ol], the figure is 1.86 µM. `CC(C)[C@H](CO)NCc1nc(-c2cccc(C(F)(F)F)c2)ccc1F` [Example 16, (2R)-2-[({3-fluoro-6-[3-(trifluoromethyl)phenyl]pyridin-2-yl}methyl)amino]-3-methylbutan-1-ol]: the IC50 amounted to 1.11 µM.

On to `O[C@H]1CCC[C@@H]1NCc1ccnc(-c2ccc(C(F)(F)F)cc2)n1` [Example 174, (1S,2S)-2-[({2-[4-(trifluoromethyl)phenyl]pyrimidin-4-yl}methyl)amino]cyclopentanol], for which the IC50 was above 20 µM. In the case of `OC[C@H](NCc1nc(-c2ccc(OCC(F)(F)F)nc2)ccc1F)C1CC1` [Example 76, (2R)-2-cyclopropyl-2-({[5-fluoro-6′-(2,2,2-trifluoroethoxy)-2,3′-bipyridin-6-yl]methyl}amino)ethanol], the IC50 is 1.6 µM.

Consider `CC(C)[C@H](CO)NCc1cccc(OC(C)(C)C)n1` [Example 26], for which the IC50 is 4.06 µM. As to `OC[C@H]1[C@H]2CC[C@H](C2)[C@H]1NCc1ccnc(-c2ccc(C(F)(F)F)cc2)n1` [Example 170, {(1S,2S,3R,4R)-3-[({2-[4-(trifluoromethyl)phenyl]pyrimidin-4-yl}methyl)amino]bicyclo[2.2.1]hept-2-yl]methanol], the IC50 was found to be 6.16 µM.

As to `C[C@@H](O)[C@H](NCc1nc(-c2ccc(C(F)(F)F)nc2)ccc1F)C(N)=O` [Example 120, (2S,3R)-2-((5-fluoro-6′-(trifluoromethyl)-2,3′-bipyridin-6-yl)methylamino)-3-hydroxybutanamide], the IC50 is above 20 µM. Turning to `CC(C)(CO)NCc1cccc(-c2cccc([Si](C)(C)C)c2)n1` [Example 237, 2-methyl-2-[({6-[3-(trimethylsilyl)phenyl]pyridin-2-yl}methyl)amino]propan-1-ol], the IC50 was determined as 5.75 µM.
